Values of other authors in US4241056A, “Penicillins and salts thereof” (Boehringer Ingelheim GmbH, priority 1978, dated 1980).
Structures can show the parent of a compound that is named as a salt.

How the values were obtained:
[1] = tested on: various kinds of E. coli; details: cited from earlier work
[2] = tested on: Klebsiella; details: cited from earlier work
[3] = tested on: Pseudomonas; details: in vivo as well as in vitro; cited from earlier work

SMILES	activity against various kinds of E. coli [1]	activity against Klebsiella [2]	antipseudomonal activity [3]
CC1(C)S[C@@H]2[C@H](NC(=O)[C@H](NC(=O)N3CCNC3=O)c3ccccc3)C(=O)N2[C@H]1C(=O)O [Azlocillin, 6-{D-α-[(2-oxo-imidazolidine-1-yl)carbonylamino]-4-phenyl-acetamino}-pencillanic acid sodium salt]	only a moderate activity	only a moderate activity	–
CC1(C)S[C@@H]2[C@H](NC(=O)C(c3ccccc3)S(=O)(=O)O)C(=O)N2[C@H]1C(=O)O (stereo partly drawn) [Sulbenicillin]	–	–	only a poor activity
